Reference: patent US20260327191A1, “GSK3a INHIBITORS AND METHODS OF USE THEREOF” (Blueprint Medicines Corporation, priority 2023, published 2026)

Legend:
[1] = molecular target: T1, human GSK3α (Homo sapiens, UniProt P49840); experiment: In vitro enzymatic activity assay, GSK3α; assay type: biochemical; details: 1.0 mM ATP, 1.0 μM peptide substrate, 120 min, 25° C, read-out: Enzyme GSK3α (IC50)
T1 construct: Full length human GSK3α or GSK3B expressed as N-terminal GST fusion proteins; GST (N); purchased Carna Biosciences (Japan); host or cells: baculovirus host
T1 sequence (P49840 whole entry, the tested form may be a part): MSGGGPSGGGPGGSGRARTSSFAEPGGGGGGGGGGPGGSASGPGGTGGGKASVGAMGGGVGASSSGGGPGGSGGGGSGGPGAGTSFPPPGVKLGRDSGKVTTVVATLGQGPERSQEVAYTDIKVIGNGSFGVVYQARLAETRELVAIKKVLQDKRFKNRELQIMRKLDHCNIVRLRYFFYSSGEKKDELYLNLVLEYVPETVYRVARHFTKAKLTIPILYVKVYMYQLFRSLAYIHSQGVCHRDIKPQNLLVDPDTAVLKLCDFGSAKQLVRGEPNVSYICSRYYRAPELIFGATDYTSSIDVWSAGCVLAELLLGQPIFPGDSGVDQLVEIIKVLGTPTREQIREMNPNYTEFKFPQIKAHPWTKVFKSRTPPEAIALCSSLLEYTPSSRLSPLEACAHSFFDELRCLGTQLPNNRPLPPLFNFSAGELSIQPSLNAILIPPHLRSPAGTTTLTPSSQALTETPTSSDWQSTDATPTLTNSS
Protocol: (§1) Full length human GSK3α or GSK3B expressed as N-terminal GST fusion proteins in baculovirus host were purchased from Carna Biosciences (Japan). The kinase was pre-incubated with ATP (adenosine-5′-triphosphate) for 45 min, then incubated with tested compounds for another 45 min in assay buffer that contains 100 mM HEPES (N-2-hydroxyethylpiperazine-N′-2-ethanesulfonic acid), pH 7.5, 10 mM MgCl2, 1.0 mM DTT, and 0.015% Briji-35. […] Percent inhibition was plotted against compound concentration to generate 10-point dose response curve with 3-fold serial dilution starting from 10 μM. IC50 value was determined from the 4-parameter logistic curve fitting.

[2] = molecular target: T2, GSK3B (Homo sapiens, UniProt P49841); experiment: NanoBRET cellular target engagement assay, Nanoluc-GSK3B in HEK293 cells; assay type: cell-based; design: expressed in transfected cells; details: NanoBRET GSK3β IC50, HEK293 cells, tracer K-8, 2 hours, 37° C
T2 sequence (P49841 whole entry): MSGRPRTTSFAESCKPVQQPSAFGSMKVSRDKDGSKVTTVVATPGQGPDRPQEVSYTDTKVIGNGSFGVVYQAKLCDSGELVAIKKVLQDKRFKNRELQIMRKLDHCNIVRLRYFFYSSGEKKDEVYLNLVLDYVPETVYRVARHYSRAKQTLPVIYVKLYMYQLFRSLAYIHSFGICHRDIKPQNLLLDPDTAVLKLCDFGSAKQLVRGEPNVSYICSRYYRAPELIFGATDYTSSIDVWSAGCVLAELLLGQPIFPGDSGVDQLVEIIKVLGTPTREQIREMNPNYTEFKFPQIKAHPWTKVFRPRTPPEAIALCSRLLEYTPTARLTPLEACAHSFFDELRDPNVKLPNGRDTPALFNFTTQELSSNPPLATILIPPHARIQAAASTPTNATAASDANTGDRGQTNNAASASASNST
Protocol: (§2) In the assay, HEK293 cells stably expressing either Nanoluc-GSK3A or Nanoluc-GSK3B were maintained in culture media and seeded, using a multidrop dispenser, at a density of 5×10^3 cells per well in 384-well white plates with 100 ng/ml doxycycline (Sigma) overnight.
(§3) Compound was first diluted in DMSO to generate a 9-point serial dilution then diluted to 10× final concentration in Opti-MEM™ (Gibco). After overnight incubation, cell medium was aspirated from the seeded cells using a microplate automatic washer, then 27 μL of pre-warmed Opti-MEM™ with kinase tracer (K-8) and 3 μL of Opti-MEM™ diluted DMSO or compounds were added per well. Plates were protected from light, mixed in an orbital shaker for 3 min at RT and incubated at 37° C., 5% CO2 in a humidified incubator for 2 hours. After acclimation at RT for 15 min, 15 μL of 3× complete NanoBRET™ Nano-Glo Substrate/Inhibitor (Promega) was added per well. Plates were mixed in an orbital shaker for 3 min at RT and incubated for an additional 30 min. Donor emission at 460 nm and acceptor emission at 647 nm were measured in EnVision multilabel plate reader (Perkin Elmer).

[3] = molecular target: T3, GSK3A (Homo sapiens, UniProt P49840); experiment: NanoBRET cellular target engagement assay, Nanoluc-GSK3A in HEK293 cells; assay type: cell-based; details: NanoBRET GSK3α IC50, HEK293 cells, tracer K-8, 2 hours, 37° C
T3 construct: expressed in transfected cells
T3 sequence (P49840 whole entry): as the sequence (P49840 whole entry, the tested form may be a part) above
Protocol: as §2, §3

[4] = molecular target: T2, GSK3B; experiment: In vitro enzymatic activity assay, GSK3β; assay type: biochemical; design: Full length human GSK3α or GSK3B expressed as N-terminal GST fusion proteins; GST (N); purchased Carna Biosciences (Japan); host or cells: baculovirus host; details: 1.0 mM ATP, 1.0 μM peptide substrate, 120 min, 25° C, read-out: Enzyme GSK3β (IC50)
Protocol: as §1

Row | Compound | IC50 [1] | IC50 [2] | IC50 [3] | IC50 [4]
1 | CNC(C)c1cncc(NC(=O)c2c(N)ncn(-c3c(Cl)cc(OC)cc3Cl)c2=O)c1 (single isomer, unassigned) [Example 18, (S)-4-amino-1-(2,6-dichloro-4-methoxyphenyl)-N-(5-(1-(methylamino)ethyl)pyridin-3-yl)-6-oxo-1,6-dihydropyrimidine-5-carboxamide or (R)-4-amino-1-(2,6-dichloro-4-methoxyphenyl)-N-(5-(1-(methylamino)ethyl)pyridin-3-yl)-6-oxo-1,6-dihydropyrimidine-5-carboxamide] | 11.9 nM | 429 nM | 7.1 nM | 622 nM
2 | CCOc1cc(Cl)c(-n2cnc(N)c(C(=O)Nc3cncc(C(C)NC)c3)c2=O)c(Cl)c1 (single isomer, unassigned) [Example 24, (R)-4-amino-1-(2,6-dichloro-4-ethoxyphenyl)-N-(5-(1-(methylamino)ethyl)pyridin-3-yl)-6-oxo-1,6-dihydropyrimidine-5-carboxamide or (S)-4-amino-1-(2,6-dichloro-4-ethoxyphenyl)-N-(5-(1-(methylamino)ethyl)pyridin-3-yl)-6-oxo-1,6-dihydropyrimidine-5-carboxamide] | 4.1 nM | 147 nM | 2.8 nM | 298 nM
3 | COCc1cc(C)c(-n2cnc(N)c(C(=O)Nc3cncc4c3CCC4(C)N)c2=O)c(C)c1 (single isomer, unassigned) [Example 27, (R)-4-amino-N-(7-amino-7-methyl-6,7-dihydro-5H-cyclopenta[c]pyridin-4-yl)-1-(4-(methoxymethyl)-2,6-dimethylphenyl)-6-oxo-1,6-dihydropyrimidine-5-carboxamide or (S)-4-amino-N-(7-amino-7-methyl-6,7-dihydro-5H-cyclopenta[c]pyridin-4-yl)-1-(4-(methoxymethyl)-2,6-dimethylphenyl)-6-oxo-1,6-dihydropyrimidine-5-carboxamide] | 2.4 nM | 42.5 nM | 1.7 nM | 54.2 nM
4 | COC[C@](C)(N)c1cncc(NC(=O)c2c(N)ncn(-c3c(Cl)cc(OC)cc3Cl)c2=O)c1 (single isomer, unassigned) [Example 31, (R)-4-amino-N-(5-(2-amino-1-methoxypropan-2-yl)pyridin-3-yl)-1-(2,6-dichloro-4-methoxyphenyl)-6-oxo-1,6-dihydropyrimidine-5-carboxamide or (S)-4-amino-N-(5-(2-amino-1-methoxypropan-2-yl)pyridin-3-yl)-1-(2,6-dichloro-4-methoxyphenyl)-6-oxo-1,6-dihydropyrimidine-5-carboxamide] | 6.9 nM | 418 nM | 5 nM | 405 nM
5 | CCC(N)c1cncc(NC(=O)c2c(N)ncn(-c3c(C)cc(COC)cc3C)c2=O)c1 (single isomer, unassigned) [Example 35, (R)-4-amino-N-(5-(1-aminopropyl)pyridin-3-yl)-1-(4-(methoxymethyl)-2,6-dimethylphenyl)-6-oxo-1,6-dihydropyrimidine-5-carboxamide or (S)-4-amino-N-(5-(1-aminopropyl)pyridin-3-yl)-1-(4-(methoxymethyl)-2,6-dimethylphenyl)-6-oxo-1,6-dihydropyrimidine-5-carboxamide] | 14.7 nM | 412 nM | 6.2 nM | 693 nM
6 | COC[C@H](N)c1cncc(NC(=O)c2c(N)ncn(-c3c(Cl)cc(OC(F)F)cc3Cl)c2=O)c1 (single isomer, unassigned) [Example 47, (R)-4-amino-N-(5-(1-amino-2-methoxyethyl)pyridin-3-yl)-1-(2,6-dichloro-4-(difluoromethoxy)phenyl)-6-oxo-1,6-dihydropyrimidine-5-carboxamide or (S)-4-amino-N-(5-(1-amino-2-methoxyethyl)pyridin-3-yl)-1-(2,6-dichloro-4-(difluoromethoxy)phenyl)-6-oxo-1,6-dihydropyrimidine-5-carboxamide] | 3.2 nM | 174 nM | 2.9 nM | 227 nM

Results, then the molecule that gave them:

Row | IC50 [1] | IC50 [2] | IC50 [3] | IC50 [4] | Compound
7 | 4.1 nM | 132 nM | 1.9 nM | 255 nM | [2H]C([2H])([2H])NC(C)c1cncc(NC(=O)c2c(N)ncn(-c3c(C)cc(C(F)(F)F)cc3Cl)c2=O)c1 (single isomer, unassigned) [Example 16, (R)-4-amino-1-((S)-2-chloro-6-methyl-4-(trifluoromethyl)phenyl)-N-(5-(1-((methyl-d3)amino)ethyl)pyridin-3-yl)-6-oxo-1,6-dihydropyrimidine-5-carboxamide or (S)-4-amino-1-((S)-2-chloro-6-methyl-4-(trifluoromethyl)phenyl)-N-(5-(1-((methyl-d3)amino)ethyl)pyridin-3-yl)-6-oxo-1,6-dihydropyrimidine-5-carboxamide]
8 | 3.2 nM | 180 nM | 3.5 nM | 232 nM | CNC(C)c1cncc(NC(=O)c2c(N)ncn(-c3c(Cl)cc(OC)cc3Cl)c2=O)c1 (single isomer, unassigned) [Example 19, (R)-4-amino-1-(2,6-dichloro-4-methoxyphenyl)-N-(5-(1-(methylamino)ethyl)pyridin-3-yl)-6-oxo-1,6-dihydropyrimidine-5-carboxamide or (S)-4-amino-1-(2,6-dichloro-4-methoxyphenyl)-N-(5-(1-(methylamino)ethyl)pyridin-3-yl)-6-oxo-1,6-dihydropyrimidine-5-carboxamide]
9 | 6.3 nM | 158 nM | 2.6 nM | 269 nM | COc1cc(Cl)c(-n2cnc(N)c(C(=O)Nc3cncc([C@@H]4NC[C@H]5CCC[C@H]54)c3)c2=O)c(Cl)c1 (single isomer, unassigned) [Example 32, 4-amino-1-(2,6-dichloro-4-methoxyphenyl)-N-(5-((1R,3aS,6aR)-octahydrocyclopenta[c]pyrrol-1-yl)pyridin-3-yl)-6-oxo-1,6-dihydropyrimidine-5-carboxamide or 4-amino-1-(2,6-dichloro-4-methoxyphenyl)-N-(5-((1S,3aR,6aS)-octahydrocyclopenta[c]pyrrol-1-yl)pyridin-3-yl)-6-oxo-1,6-dihydropyrimidine-5-carboxamide]
10 | 12.1 nM | 386 nM | 5.9 nM | 605 nM | Cc1cc(C#N)cc(Cl)c1-n1cnc(N)c(C(=O)Nc2cccc([C@@H]3CCCCN3)c2)c1=O (single isomer, unassigned) [Example 41, (S)-4-amino-1-((S)-2-chloro-4-cyano-6-methylphenyl)-6-oxo-N-(3-(piperidin-2-yl)phenyl)-1,6-dihydropyrimidine-5-carboxamide or (R)-4-amino-1-((S)-2-chloro-4-cyano-6-methylphenyl)-6-oxo-N-(3-(piperidin-2-yl)phenyl)-1,6-dihydropyrimidine-5-carboxamide]
11 | 4.9 nM | 285 nM | 5.4 nM | 283 nM | C[C@H](N)c1cncc(NC(=O)c2c(N)ncn(-c3c(Cl)cc(C#N)cc3Cl)c2=O)c1 (single isomer, unassigned) [Example 43, (S)-4-amino-N-(5-(1-aminoethyl)pyridin-3-yl)-1-(2,6-dichloro-4-cyanophenyl)-6-oxo-1,6-dihydropyrimidine-5-carboxamide or (R)-4-amino-N-(5-(1-aminoethyl)pyridin-3-yl)-1-(2,6-dichloro-4-cyanophenyl)-6-oxo-1,6-dihydropyrimidine-5-carboxamide]
12 | 4.7 nM | 518 nM | 7.6 nM | 382 nM | COC[C@@H](N)c1cncc(NC(=O)c2c(N)ncn(-c3c(Cl)cc(C#N)cc3Cl)c2=O)c1 (single isomer, unassigned) [Example 44, (S)-4-amino-N-(5-(1-amino-2-methoxyethyl)pyridin-3-yl)-1-(2,6-dichloro-4-cyanophenyl)-6-oxo-1,6-dihydropyrimidine-5-carboxamide or (R)-4-amino-N-(5-(1-amino-2-methoxyethyl)pyridin-3-yl)-1-(2,6-dichloro-4-cyanophenyl)-6-oxo-1,6-dihydropyrimidine-5-carboxamide]
